Data taken from patent US20220288057A1, “CONJOINT THERAPY FOR TREATING SEIZURE DISORDERS” (XENON PHARMACEUTICALS INC., priority 2021, published 2022).
Where two headings read alike, the source gives them in different places.

Assay: Terminal plasma and brain concentrations in AC-MES studies (UHPLC-MS/MS)
Type: in vivo, mouse
Description: Sample Collection and Preparation: Mice were anesthetized by isoflurane inhalation (according to SOP TECH-018) until they reached a surgical plane of anesthesia. Then a syringe (1 mL syringe with a 22 gauge needle) was inserted under the sternum into the heart (according to SOP TECH-031). Approximately 0.5 mL of blood was collected, deposited into a K2EDTA tube, and stored on ice. Animals were then euthanized by cervical dislocation. Brains were removed, placed into a pre-weighed vial, and snap frozen on dry ice. At the end of the sample collection, blood was centrifuged at 4000 rpm for 10 minutes at 4° C., and the plasma pipetted into a labeled tube. All samples were stored in a −80° C. freezer until the time of bioanalysis.
Plasma Samples: Extraction of plasma samples was carried out by protein precipitation using acetonitrile. Diluted plasma samples (50 μL) were mixed with 50 μL of internal standard (IS) solution in 1:1 acetonitrile:water (v:v) followed by addition of 200 μL of acetonitrile. Samples were vortexed for 30 seconds, centrifuged at 13,000 rpm for 20 minutes, decanted into a 96-well plate and further centrifuged at 4000 rpm for 20 minutes. The samples were analyzed by ultra-high performance liquid chromatography electrospray ionization tandem mass spectrometry (UHPLC-ESI-MS/MS) as described in the bioanalysis procedure below.
Brain Samples: Prior to extraction, pre-weighed whole brains were homogenized in 1:1 acetonitrile:water (v:v) (2 mL per mouse brain) using an IKA T18 Ultra-Turrax Homogenizer at the setting of 4 for approximately 1 minute. The homogenate was centrifuged at 13,000 rpm for 20 minutes and 50 μL of the supernatant were treated exactly as described in above for plasma samples.
Bioanalysis Procedures: All samples, including plasma and brain homogenate extracts (including calibration standards and quality control (QC) samples prepared in K2EDTA mouse plasma), were extracted by protein precipitation. To each 50 μL aliquot of sample, 50 μL of IS solution (2500 ng/mL of Lacosamide in water:acetonitrile (1:1)) and 50 μL of 6% (v:v) phosphoric acid in water were added, then 200 μL acetonitrile was added. The samples in 1.7 mL tubes were vortex-mixed then centrifuged for 20 minutes at 13,000 rpm. Fifty microliters of the supernatant was mixed with 150 μL of water:acetonitrile (1:1) in a 96 well plate, which was centrifuged post-mixing for 20 minutes at 4000 rpm. The samples were then ready for UHPLC-MS/MS analysis.
Samples were analyzed for Compound A by a research-grade UHPLC-MS/MS method using the conditions listed below.
Samples were analyzed for Lacosamide by a research-grade UHPLC-MS/MS method using the conditions listed below.
At least three QC samples, one at each concentration, had to show back-calculated values within ±20% of their nominal concentrations for the whole sample batch to be valid.
The Blinding and Randomization, Clinical Observations, AC-MES Assay, Sample Collection and Preparation, Plasma and Brain Samples Analysis, and Bioanalysis Procedures in Example 4 were identical to those used in Example 2.
Sample concentration determination and Data Processing and Analysis in Example 4 was identical to Example 2.

NC(=O)O[C@@H](Cn1ncnn1)c1ccccc1Cl [Cenobamate, reference compound]
concentration at 2 h (CF-1, mouse, in vivo, 3 mg/kg, Study 4D, Cenobamate 3 mg/kg single oral dose, 2 h pre-treatment, CF-1 mice, read-out: Mean Brain): 8.7 µM
concentration at 2 h (CF-1, mouse, in vivo, 3 mg/kg, Study 4D, Cenobamate 3 mg/kg single oral dose, 2 h pre-treatment, CF-1 mice, read-out: Mean Plasma): 29.6 µM
concentration at 2 h (CF-1, mouse, in vivo, 3 mg/kg, Study 4E, Cenobamate 3 mg/kg single oral dose, 2 h pre-treatment, CF-1 mice, read-out: Mean Brain): 12.2 µM
concentration at 2 h (CF-1, mouse, in vivo, 3 mg/kg, Study 4E, Cenobamate 3 mg/kg single oral dose, 2 h pre-treatment, CF-1 mice, read-out: Mean Plasma): 27.7 µM
concentration at 2 h (CF-1, mouse, in vivo, 5 mg/kg, Study 4E, Cenobamate 5 mg/kg single oral dose, 2 h pre-treatment, CF-1 mice, read-out: Mean Brain): 22.1 µM
concentration at 2 h (CF-1, mouse, in vivo, 5 mg/kg, Study 4E, Cenobamate 5 mg/kg single oral dose, 2 h pre-treatment, CF-1 mice, read-out: Mean Plasma): 53.6 µM
concentration at 2 h (CF-1, mouse, in vivo, 5 mg/kg, Study 4F, Cenobamate 5 mg/kg PO, 2 h, alone, read-out: mean plasma concentration): 31.3 µM
concentration at 2 h (CF-1, mouse, in vivo, 5 mg/kg, Study 4F, Cenobamate 5 mg/kg PO alone, 2 h pre-treatment, CF-1 mice, read-out: Mean Brain): 12 µM
concentration at 2 h (CF-1, mouse, in vivo, 5 mg/kg, Study 4F, Cenobamate 5 mg/kg PO alone, 2 h pre-treatment, CF-1 mice, read-out: Mean Plasma): 31.3 µM
concentration at 2 h (CF-1, mouse, in vivo, 7.5 mg/kg, Cenobamate 7.5 mg/kg PO, 2 h, alone, read-out: mean plasma concentration): 78.1 µM
concentration at 2 h (CF-1, mouse, in vivo, 7.5 mg/kg, Study 4E, Cenobamate 7.5 mg/kg single oral dose, 2 h pre-treatment, CF-1 mice, read-out: Mean Brain): 34.5 µM
concentration at 2 h (CF-1, mouse, in vivo, 7.5 mg/kg, Study 4E, Cenobamate 7.5 mg/kg single oral dose, 2 h pre-treatment, CF-1 mice, read-out: Mean Plasma): 78.1 µM
concentration at 2 h (CF-1, mouse, in vivo, 10 mg/kg, Cenobamate 10 mg/kg PO, 2 h, alone, read-out: mean plasma concentration): 87 µM
concentration at 2 h (CF-1, mouse, in vivo, 10 mg/kg, Study 4D, Cenobamate 10 mg/kg single oral dose, 2 h pre-treatment, CF-1 mice, read-out: Mean Brain): 26.8 µM
concentration at 2 h (CF-1, mouse, in vivo, 10 mg/kg, Study 4D, Cenobamate 10 mg/kg single oral dose, 2 h pre-treatment, CF-1 mice, read-out: Mean Plasma): 87 µM
concentration at 2 h (CF-1, mouse, in vivo, Study 4G, analyte Cenobamate, 5 mg/kg + 0.5 mg/kg Compound A, read-out: mean total plasma concentration): 41.1 µM
concentration at 2 h (CF-1, mouse, in vivo, Study 4G, analyte Cenobamate, 5 mg/kg + 1 mg/kg Compound A, read-out: mean total plasma concentration): 39.7 µM
Kp at 2 h (CF-1, mouse, in vivo, po, 3 mg/kg, Study 4D, Cenobamate 3 mg/kg single oral dose, read-out: B/P Ratio (brain to plasma ratio)): 0.29
Kp at 2 h (CF-1, mouse, in vivo, po, 3 mg/kg, Study 4E, Cenobamate 3 mg/kg single oral dose, read-out: B/P Ratio (brain to plasma ratio)): 0.44
Kp at 2 h (CF-1, mouse, in vivo, po, 5 mg/kg, Study 4E, Cenobamate 5 mg/kg single oral dose, read-out: B/P Ratio (brain to plasma ratio)): 0.41
Kp at 2 h (CF-1, mouse, in vivo, po, 5 mg/kg, Study 4F, Cenobamate 5 mg/kg PO alone, read-out: B/P Ratio (brain to plasma ratio)): 0.38
Kp at 2 h (CF-1, mouse, in vivo, po, 7.5 mg/kg, Study 4E, Cenobamate 7.5 mg/kg single oral dose, read-out: B/P Ratio (brain to plasma ratio)): 0.44
Kp at 2 h (CF-1, mouse, in vivo, po, 10 mg/kg, Study 4D, Cenobamate 10 mg/kg single oral dose, read-out: B/P Ratio (brain to plasma ratio)): 0.31
Kp (CF-1, mouse, in vivo, po, 30 mg/kg, Study 4D, Cenobamate 30 mg/kg single oral dose, read-out: B/P Ratio (brain to plasma ratio)): 0.3
concentration at 2 h (Study 4D, Cenobamate 30 mg/kg single oral dose, CF-1 mice, read-out: Mean Brain): 71.3 µM
concentration at 2 h (Study 4D, Cenobamate 30 mg/kg single oral dose, CF-1 mice, read-out: Mean Plasma): 237 µM
Mean Brain, Cenobamate (Study 4F, Cenobamate 5 mg/kg PO (2 h) in combination with Compound A 2 mg/kg PO (0.5 h)): 14.7 µM
Mean Brain, Cenobamate (Study 4G, Cenobamate 5 mg/kg PO (2 h) in combination with Compound A 0.5 mg/kg PO (0.5 h)): 18.1 µM
Mean Brain, Cenobamate (Study 4G, Cenobamate 5 mg/kg PO (2 h) in combination with Compound A 1 mg/kg PO (0.5 h)): 17.0 µM

COC[C@@H](NC(C)=O)C(=O)NCc1ccccc1 [Lacosamide, reference compound]
Kp at 2 h (CF-1, mouse, in vivo, 6 mg/kg, Study 2A, Lacosamide 6 mg/kg PO, 2 h, read-out: B/P Ratio): 0.54
concentration at 2 h (CF-1, mouse, in vivo, 6 mg/kg, Study 2A, Lacosamide 6 mg/kg PO, 2 h, read-out: Mean Brain): 4.85 µM
concentration at 2 h (CF-1, mouse, in vivo, 6 mg/kg, Study 2A, Lacosamide 6 mg/kg PO, 2 h, read-out: Mean Plasma): 9.07 µM
Kp at 2 h (CF-1, mouse, in vivo, 6 mg/kg, Study 2D, Lacosamide 6 mg/kg PO, 2 h, read-out: B/P Ratio): 1.15
concentration at 2 h (CF-1, mouse, in vivo, 6 mg/kg, Study 2D, Lacosamide 6 mg/kg PO, 2 h, read-out: Mean Brain): 7.95 µM
concentration at 2 h (CF-1, mouse, in vivo, 6 mg/kg, Study 2D, Lacosamide 6 mg/kg PO, 2 h, read-out: Mean Plasma): 6.9 µM
Kp at 2 h (CF-1, mouse, in vivo, 8 mg/kg, Study 2A, Lacosamide 8 mg/kg PO, 2 h, read-out: B/P Ratio): 0.58
concentration at 2 h (CF-1, mouse, in vivo, 8 mg/kg, Study 2A, Lacosamide 8 mg/kg PO, 2 h, read-out: Mean Brain): 6.27 µM
concentration at 2 h (CF-1, mouse, in vivo, 8 mg/kg, Study 2A, Lacosamide 8 mg/kg PO, 2 h, read-out: Mean Plasma): 10.8 µM
Kp at 2 h (CF-1, mouse, in vivo, 10 mg/kg, Study 2B, Lacosamide 10 mg/kg PO, 2 h, read-out: B/P Ratio): 0.21
concentration at 2 h (CF-1, mouse, in vivo, 10 mg/kg, Study 2B, Lacosamide 10 mg/kg PO, 2 h, read-out: Mean Brain): 2.63 µM
concentration at 2 h (CF-1, mouse, in vivo, 10 mg/kg, Study 2B, Lacosamide 10 mg/kg PO, 2 h, read-out: Mean Plasma): 12.6 µM
Kp at 2 h (CF-1, mouse, in vivo, 10 mg/kg, Study 2C, Lacosamide 10 mg/kg PO, 2 h, alone, read-out: B/P Ratio): 0.28
concentration at 2 h (CF-1, mouse, in vivo, 10 mg/kg, Study 2C, Lacosamide 10 mg/kg PO, 2 h, alone, read-out: Mean Brain): 4.84 µM
concentration at 2 h (CF-1, mouse, in vivo, 10 mg/kg, Study 2C, Lacosamide 10 mg/kg PO, 2 h, alone, read-out: Mean Plasma): 17.1 µM
Kp at 2 h (CF-1, mouse, in vivo, 20 mg/kg, Study 2D, Lacosamide 20 mg/kg PO, 2 h, read-out: B/P Ratio): 1.12
concentration at 2 h (CF-1, mouse, in vivo, 20 mg/kg, Study 2D, Lacosamide 20 mg/kg PO, 2 h, read-out: Mean Brain): 26.8 µM
concentration at 2 h (CF-1, mouse, in vivo, 20 mg/kg, Study 2D, Lacosamide 20 mg/kg PO, 2 h, read-out: Mean Plasma): 23.9 µM
Kp at 2 h (CF-1, mouse, in vivo, Study 2C, analyte Lacosamide, 10 mg/kg PO 2 h + Compound A 3 mg/kg PO 0.5 h, read-out: B/P Ratio): 0.29
concentration at 2 h (CF-1, mouse, in vivo, Study 2C, analyte Lacosamide, 10 mg/kg PO 2 h + Compound A 3 mg/kg PO 0.5 h, read-out: Mean Brain): 4.52 µM
concentration at 2 h (CF-1, mouse, in vivo, Study 2C, analyte Lacosamide, 10 mg/kg PO 2 h + Compound A 3 mg/kg PO 0.5 h, read-out: Mean Plasma): 15.5 µM
